Values quoted from earlier work in patent US7884091B2, “Methods for treating delirium using glucocorticoid receptor-specific antagonists” (Corcept Therapeutics, Inc., priority 2001, dated 2011).

Conditions: in one study; Kawai (1989) supra

CC#C[C@]1(O)CC[C@H]2[C@@H]3CCC4=CC(=O)CCC4=C3[C@@H](c3ccc(N(C)C)cc3)C[C@@]21C [mifepristone, 17-beta-hydroxy-11-beta-(4-dimethyl-aminophenyl)-17-alpha-(1-propynyl)-estra-4,9-dien-3-one]
daily dose excreted in the urine: less than 0.5%
